The numbers were not newly measured in patent US20220226508A1, “METHODS AND COMPOSITIONS FOR TREATING EPILEPSY” (THE REGENTS OF THE UNIVERSITY OF CALIFORNIA, priority 2019, published 2022), which cites them from elsewhere.

In one series the target is 5-HT1D (Homo sapiens, UniProt P28221). The settings on record: read-out: binding affinity (Ki) 5-HT1D; cited from earlier work.
In another series the target is 5-HT7 (Homo sapiens, UniProt P34969). The conditions noted are these: read-out: binding affinity (Ki) 5-HT7; cited from earlier work.
Chain of 5-HT7 (P34969 whole entry, species assumed): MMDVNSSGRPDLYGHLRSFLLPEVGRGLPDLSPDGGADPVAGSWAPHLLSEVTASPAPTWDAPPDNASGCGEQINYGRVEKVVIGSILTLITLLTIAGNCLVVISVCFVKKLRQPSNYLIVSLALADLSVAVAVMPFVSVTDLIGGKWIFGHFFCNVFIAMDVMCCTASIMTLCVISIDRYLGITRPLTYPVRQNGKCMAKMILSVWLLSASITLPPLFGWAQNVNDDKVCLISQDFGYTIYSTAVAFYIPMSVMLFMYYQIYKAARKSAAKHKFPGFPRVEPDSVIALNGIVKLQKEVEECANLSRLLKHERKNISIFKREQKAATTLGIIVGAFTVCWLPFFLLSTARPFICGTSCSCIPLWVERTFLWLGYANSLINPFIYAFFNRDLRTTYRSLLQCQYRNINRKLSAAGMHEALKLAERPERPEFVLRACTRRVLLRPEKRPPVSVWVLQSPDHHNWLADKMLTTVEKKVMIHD
Another series addresses 5-HT1B (Homo sapiens, UniProt P28222). The settings on record: read-out: binding affinity (Ki) 5-HT1B; cited from earlier work.
Another series has as its target 5-HT6 (Homo sapiens, UniProt P50406). The settings on record: read-out: binding affinity (Ki) 5-HT6; cited from earlier work.
The next series addresses T1, Adrenergic Alpha1B (Homo sapiens, UniProt P35368).
T1 sequence (P35368 1-520): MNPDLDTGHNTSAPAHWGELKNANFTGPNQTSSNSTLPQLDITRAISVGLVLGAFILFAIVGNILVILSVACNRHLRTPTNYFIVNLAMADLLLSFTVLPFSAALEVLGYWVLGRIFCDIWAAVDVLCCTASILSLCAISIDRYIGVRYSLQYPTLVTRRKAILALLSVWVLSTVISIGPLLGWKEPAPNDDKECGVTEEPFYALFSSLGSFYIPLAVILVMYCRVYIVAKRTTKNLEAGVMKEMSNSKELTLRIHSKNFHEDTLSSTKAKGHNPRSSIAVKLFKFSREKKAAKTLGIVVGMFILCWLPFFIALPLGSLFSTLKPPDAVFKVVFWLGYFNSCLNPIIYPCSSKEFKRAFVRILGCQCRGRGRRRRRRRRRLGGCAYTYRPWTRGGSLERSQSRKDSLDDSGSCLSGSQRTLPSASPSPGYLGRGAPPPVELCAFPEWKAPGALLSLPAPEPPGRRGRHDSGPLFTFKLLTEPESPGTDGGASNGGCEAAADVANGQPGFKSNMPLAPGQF
The settings on record: read-out: binding affinity (Ki) Adrenergic Alpha1B; cited from earlier work.

Chain of 5-HT1B (P28222 whole entry, species assumed): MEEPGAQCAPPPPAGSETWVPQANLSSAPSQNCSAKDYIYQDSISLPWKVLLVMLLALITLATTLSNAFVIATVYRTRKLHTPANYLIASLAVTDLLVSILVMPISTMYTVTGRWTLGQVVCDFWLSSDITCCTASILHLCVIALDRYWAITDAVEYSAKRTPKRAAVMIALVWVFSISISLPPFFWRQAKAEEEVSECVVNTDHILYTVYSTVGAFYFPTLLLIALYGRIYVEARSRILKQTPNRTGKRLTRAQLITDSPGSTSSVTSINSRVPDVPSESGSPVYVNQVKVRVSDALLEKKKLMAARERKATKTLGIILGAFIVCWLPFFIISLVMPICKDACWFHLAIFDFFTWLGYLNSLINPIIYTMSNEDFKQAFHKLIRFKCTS
Chain of 5-HT6 (P50406 whole entry, species assumed): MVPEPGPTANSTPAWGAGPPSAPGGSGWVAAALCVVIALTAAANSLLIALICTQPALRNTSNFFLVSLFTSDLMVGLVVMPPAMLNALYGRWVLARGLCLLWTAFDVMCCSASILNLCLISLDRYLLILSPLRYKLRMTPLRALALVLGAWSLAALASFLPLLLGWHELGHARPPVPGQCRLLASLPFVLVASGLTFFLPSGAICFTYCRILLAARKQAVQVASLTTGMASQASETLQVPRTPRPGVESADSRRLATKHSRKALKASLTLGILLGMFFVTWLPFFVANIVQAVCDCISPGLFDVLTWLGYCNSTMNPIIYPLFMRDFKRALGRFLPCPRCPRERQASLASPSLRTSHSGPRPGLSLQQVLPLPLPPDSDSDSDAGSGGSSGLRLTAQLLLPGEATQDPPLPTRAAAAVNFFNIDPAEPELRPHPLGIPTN
Chain of 5-HT1D (P28221 whole entry, species assumed): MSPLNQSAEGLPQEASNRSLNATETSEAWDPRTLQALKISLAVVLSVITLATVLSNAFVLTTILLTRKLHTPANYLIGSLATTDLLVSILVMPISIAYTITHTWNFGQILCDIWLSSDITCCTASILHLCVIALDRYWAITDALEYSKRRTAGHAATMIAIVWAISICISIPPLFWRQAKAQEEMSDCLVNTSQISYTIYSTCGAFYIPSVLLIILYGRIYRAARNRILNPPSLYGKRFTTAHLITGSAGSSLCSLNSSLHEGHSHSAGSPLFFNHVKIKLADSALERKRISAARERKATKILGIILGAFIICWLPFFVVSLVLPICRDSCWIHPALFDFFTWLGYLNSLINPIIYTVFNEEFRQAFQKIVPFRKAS

With `CCNC(C)Cc1cccc(C(F)(F)F)c1` (centres unmarked) [FEN], the inhibition constant (Ki) on 5-HT1D is 1260 nM; at 5-HT7, 7310 nM; on 5-HT1B it was 1840 nM; at 5-HT6, 9080 nM; at Adrenergic Alpha1B, 142 nM.

One may read the Ki as a measure of affinity in units of concentration, obtained from inhibition or displacement.
